Active and inactive are the calls of the source. The calls are words filed in the database; no cut-off is given here.
How the values were obtained:
Nucleic Acid [1] = assay: Inhibition of microRNA-21 in human HeLa cells assessed as reduction in microRNA-21 expression at 10 uM incubated for 24 hrs by stem-loop RT-PCR method; type: cell-based
Nucleic Acid [2] = assay: Inhibition of microRNA-21 in human HeLa cells assessed as reduction in microRNA-21 expression at 10 uM incubated for 6 to 48 hrs by stem-loop RT-PCR method; type: cell-based
Nucleic Acid [3] = assay: Inhibition of microRNA-21 in human HeLa cells assessed as reduction in microRNA-21 expression at 2.5 to 20 uM incubated for 24 hrs by stem-loop RT-PCR method; type: cell-based
Nucleic Acid [4] = assay: Inhibition of microRNA-21 in human HeLa cells assessed as increase in PDCD4 protein expression at 10 uM incubated for 48 hrs by Western blot method; type: cell-based
HeLa [5] = assay: Induction of apoptosis in human HeLa cells assessed as viable cells level at 10 uM incubated for 48 hrs by Annexin V-FITC and propidium iodide staining based flow cytometry (reference value: 93.7%); type: functional
HeLa [6] = assay: Induction of apoptosis in human HeLa cells assessed as early apoptotic cells level at 10 uM incubated for 48 hrs by Annexin V-FITC and propidium iodide staining based flow cytometry (reference value: 2.9%); type: functional
HeLa [7] = assay: Induction of apoptosis in human HeLa cells assessed as late apoptotic cells level at 10 uM incubated for 48 hrs by Annexin V-FITC and propidium iodide staining based flow cytometry (reference value: 2.2%); type: functional
HeLa [8] = assay: Induction of apoptosis in human HeLa cells assessed as necrotic cells level at 10 uM incubated for 48 hrs by Annexin V-FITC and propidium iodide staining based flow cytometry (reference value: 1.2%); type: functional
HeLa [9] = assay: Induction of apoptosis in human HeLa cells assessed as viable cells level at 10 uM incubated for 48 hrs in presence of 50 uM H2O2 by Annexin V-FITC and propidium iodide staining based flow cytometry (reference value: 93.7%); type: functional
HeLa [10] = assay: Induction of apoptosis in human HeLa cells assessed as early apoptotic cells level at 10 uM incubated for 48 hrs in presence of 50 uM H2O2 by Annexin V-FITC and propidium iodide staining based flow cytometry (reference value: 2.9%); type: functional
HeLa [11] = assay: Induction of apoptosis in human HeLa cells assessed as late apoptotic cells level at 10 uM incubated for 48 hrs in presence of 50 uM H2O2 by Annexin V-FITC and propidium iodide staining based flow cytometry (reference value: 2.2%); type: functional
HeLa [12] = assay: Induction of apoptosis in human HeLa cells assessed as necrotic cells level at 10 uM incubated for 48 hrs in presence of 50 uM H2O2 by Annexin V-FITC and propidium iodide staining based flow cytometry (reference value: 1.2%); type: functional
U-87 MG [13] = assay: Induction of apoptosis in human U87MG cells assessed as viable cells level at 10 uM incubated for 48 hrs by Annexin V-FITC and propidium iodide staining based flow cytometry (reference value: 94.1%); type: functional, U-87MG ATCC
U-87 MG [14] = assay: Induction of apoptosis in human U87MG cells assessed as early apoptotic cells level at 10 uM incubated for 48 hrs by Annexin V-FITC and propidium iodide staining based flow cytometry (reference value: 2%); type: functional, U-87MG ATCC
U-87 MG [15] = assay: Induction of apoptosis in human U87MG cells assessed as late apoptotic cells level at 10 uM incubated for 48 hrs by Annexin V-FITC and propidium iodide staining based flow cytometry (reference value: 2.6%); type: functional, U-87MG ATCC
U-87 MG [16] = assay: Induction of apoptosis in human U87MG cells assessed as necrotic cells level at 10 uM incubated for 48 hrs by Annexin V-FITC and propidium iodide staining based flow cytometry (reference value: 1.3%); type: functional, U-87MG ATCC
U-87 MG [17] = assay: Induction of apoptosis in human U87MG cells assessed as viable cells level at 10 uM incubated for 48 hrs in presence of 50 uM H2O2 by Annexin V-FITC and propidium iodide staining based flow cytometry (reference value: 94.1%); type: functional, U-87MG ATCC
U-87 MG [18] = assay: Induction of apoptosis in human U87MG cells assessed as early apoptotic cells level at 10 uM incubated for 48 hrs in presence of 50 uM H2O2 by Annexin V-FITC and propidium iodide staining based flow cytometry (reference value: 2%); type: functional, U-87MG ATCC
U-87 MG [19] = assay: Induction of apoptosis in human U87MG cells assessed as late apoptotic cells level at 10 uM incubated for 48 hrs in presence of 50 uM H2O2 by Annexin V-FITC and propidium iodide staining based flow cytometry (reference value: 2.6%); type: functional, U-87MG ATCC
U-87 MG [20] = assay: Induction of apoptosis in human U87MG cells assessed as necrotic cells level at 10 uM incubated for 48 hrs in presence of 50 uM H2O2 by Annexin V-FITC and propidium iodide staining based flow cytometry (reference value: 1.3%); type: functional, U-87MG ATCC
HeLa [21] = assay: Inhibition of cell proliferation of human HeLa cells assessed as induction of retardation of cell proliferation at 10 uM incubated for 48 hrs by CFSE staining based FACS method; type: functional
HeLa [22] = assay: Inhibition of cell proliferation of human HeLa cells assessed as induction of retardation of cell proliferation at 10 uM incubated for 48 hrs in presence of 50 uM H2O2 by CFSE staining based FACS method; type: functional
U-87 MG [23] = assay: Inhibition of cell proliferation of human U87MG cells assessed as induction of retardation of cell proliferation at 10 uM incubated for 48 hrs by CFSE staining based FACS method; type: functional; details: U-87MG ATCC
U-87 MG [24] = assay: Inhibition of cell proliferation of human U87MG cells assessed as induction of retardation of cell proliferation at 10 uM incubated for 48 hrs in presence of 50 uM H2O2 by CFSE staining based FACS method; type: functional; details: U-87MG ATCC
U-87 MG [25] = assay: Inhibition of cell proliferation of human U87MG cells assessed as time required for cell doubling by measuring mean fluorescence intensity at 10 uM incubated for 48 hrs by CFSE staining based FACS method; type: functional; details: U-87MG ATCC
U-87 MG [26] = assay: Inhibition of cell proliferation of human U87MG cells assessed as time required for cell doubling by measuring mean fluorescence intensity at 10 uM incubated for 48 hrs in presence of 50 uM H2O2 by CFSE staining based FACS method; type: functional; details: U-87MG ATCC
HeLa [27] = assay: Inhibition of let-7a miRNA in human HeLa cells assessed as reduction in microRNA-21 expression at 10 uM incubated for 24 hrs by RT-qPCR method; type: cell-based
Nucleic Acid [28] = assay: Inhibition of microRNA-25 in human HeLa cells assessed as reduction in microRNA-21 expression at 10 uM incubated for 24 hrs by RT-qPCR method; type: cell-based
Nucleic Acid [29] = assay: Inhibition of microRNA-26 in human HeLa cells assessed as reduction in microRNA-21 expression at 10 uM incubated for 24 hrs by RT-qPCR method; type: cell-based
Nucleic Acid [30] = assay: Inhibition of microRNA-126 in human HeLa cells assessed as reduction in microRNA-21 expression at 10 uM incubated for 24 hrs by RT-qPCR method; type: cell-based
Nucleic Acid [31] = assay: Inhibition of microRNA-133 in human HeLa cells assessed as reduction in microRNA-21 expression at 10 uM incubated for 24 hrs by RT-qPCR method; type: cell-based
Nucleic Acid [32] = assay: Inhibition of microRNA-143 in human HeLa cells assessed as reduction in microRNA-21 expression at 10 uM incubated for 24 hrs by RT-qPCR method; type: cell-based
Nucleic Acid [33] = assay: Inhibition of microRNA-145 in human HeLa cells assessed as reduction in microRNA-21 expression at 10 uM incubated for 24 hrs by RT-qPCR method; type: cell-based
Nucleic Acid [34] = assay: Inhibition of microRNA-146 in human HeLa cells assessed as reduction in microRNA-21 expression at 10 uM incubated for 24 hrs by RT-qPCR method; type: cell-based
Nucleic Acid [35] = assay: Inhibition of microRNA-148 in human HeLa cells assessed as reduction in microRNA-21 expression at 10 uM incubated for 24 hrs by RT-qPCR method; type: cell-based
Nucleic Acid [36] = assay: Inhibition of microRNA-152 in human HeLa cells assessed as reduction in microRNA-21 expression at 10 uM incubated for 24 hrs by RT-qPCR method; type: cell-based
Nucleic Acid [37] = assay: Inhibition of microRNA-195 in human HeLa cells assessed as reduction in microRNA-21 expression at 10 uM incubated for 24 hrs by RT-qPCR method; type: cell-based
HeLa [38] = assay: Effect on universal miRNA biosynthesis pathway-related gene expression in human HeLa assessed as DROSHA gene expression at 10 uM incubated for 24 hrs by RT-qPCR method; type: cell-based
HeLa [39] = assay: Effect on universal miRNA biosynthesis pathway-related gene expression in human HeLa assessed as TARBP2 gene expression at 10 uM incubated for 24 hrs by RT-qPCR method; type: ADME, cell-based
HeLa [40] = assay: Effect on universal miRNA biosynthesis pathway-related gene expression in human HeLa assessed as DGCR8 gene expression at 10 uM incubated for 24 hrs by RT-qPCR method; type: cell-based
HeLa [41] = assay: Effect on universal miRNA biosynthesis pathway-related gene expression in human HeLa assessed as XPO5 gene expression at 10 uM incubated for 24 hrs by RT-qPCR method; type: cell-based
HeLa [42] = assay: Effect on universal miRNA biosynthesis pathway-related gene expression in human HeLa assessed as DICER1 gene expression at 10 uM incubated for 24 hrs by RT-qPCR method; type: cell-based
HeLa [43] = assay: Effect on universal miRNA biosynthesis pathway-related gene expression in human HeLa assessed as AGO2 gene expression at 10 uM incubated for 24 hrs by RT-qPCR method; type: cell-based

Compound: C#CCNC(=O)c1ccc(NC(=O)c2cccc(I)c2)cc1
- inhibition (Nucleic Acid [1]): Active

Compound: C#CCNC(=O)c1ccc(NC(=O)c2cc(OC)ccc2OC)cc1
- inhibition (Nucleic Acid [1]): Active

Compound: C#CCNC(=O)c1ccc(NC(=O)c2ccc(OC)cc2OC)cc1
- inhibition (Nucleic Acid [1]): Active

Compound: C#CCNC(=O)c1ccc(NC(=O)c2ccc(OC)c(OCc3ccccc3)c2)cc1
- inhibition (Nucleic Acid [1]): Active

Compound: C#CCNC(=O)c1ccc(NC(=O)c2ccccc2Br)cc1
- inhibition (Nucleic Acid [1]): Active
- inhibition (Nucleic Acid [2]): Active
- inhibition (Nucleic Acid [3]): Active
- inhibition (Nucleic Acid [4]): Active
- Activity (HeLa [5]): 91.6%
- Activity (HeLa [6]): 3.5%
- Activity (HeLa [7]): 3.4%
- Activity (HeLa [8]): 1.5%
- Activity (HeLa [9]): 67.5%
- Activity (HeLa [10]): 8.9%
- Activity (HeLa [11]): 19.1%
- Activity (HeLa [12]): 4.5%
- Activity (U-87 MG [13]): 91.9%
- Activity (U-87 MG [14]): 2.3%
- Activity (U-87 MG [15]): 4%
- Activity (U-87 MG [16]): 1.7%
- Activity (U-87 MG [17]): 82.4%
- Activity (U-87 MG [18]): 3.9%
- Activity (U-87 MG [19]): 10.2%
- Activity (U-87 MG [20]): 3.5%
- inhibition (HeLa [21]): Active
- inhibition (HeLa [22]): Active
- inhibition (U-87 MG [23]): Active
- inhibition (U-87 MG [24]): Active
- inhibition (U-87 MG [25]): Active
- inhibition (U-87 MG [26]): Active
- inhibition (HeLa [27]): inactive
- inhibition (Nucleic Acid [28]): inactive
- inhibition (Nucleic Acid [29]): inactive
- inhibition (Nucleic Acid [30]): inactive
- inhibition (Nucleic Acid [31]): inactive
- inhibition (Nucleic Acid [32]): inactive
- inhibition (Nucleic Acid [33]): inactive
- inhibition (Nucleic Acid [34]): inactive
- inhibition (Nucleic Acid [35]): inactive
- inhibition (Nucleic Acid [36]): inactive
- inhibition (Nucleic Acid [37]): inactive
- Activity (HeLa [38]): Non-toxic
- Activity (HeLa [39]): Non-toxic
- Activity (HeLa [40]): Non-toxic
- Activity (HeLa [41]): Non-toxic
- Activity (HeLa [42]): Non-toxic
- Activity (HeLa [43]): Non-toxic

Compound: C#CCNC(=O)c1ccc(/N=N/c2ccccc2)cc1
- inhibition (Nucleic Acid [1]): Active
- inhibition (Nucleic Acid [4]): Active

Compound: C#CCNC(=O)c1ccc(NC(=O)c2cccnc2)cc1
- inhibition (Nucleic Acid [1]): Active
